PMC8012331, “Drug-induced hepatic steatosis in absence of severe mitochondrial dysfunction in HepaRG cells: proof of multiple mechanism-based toxicity” (Cell Biology and Toxicology, 2020)
Values joined by “and” are separate entries in the source; they are usually repeats but may differ in a detail not shown here. Equal values may be shown once. “Also recorded” adds a separate entry of the source. Read-outs that look alike come from different tables or passages of the source.

Columns and labels:
[1] = patients, ref given per drug, cited from earlier work; for Cmax: read-out: Maximum plasma concentration (Cmax) in patients
[2] = system: fatty acid translocase (FAT, also known as CD36); test: RT-qPCR FAT/CD36 mRNA in HepaRG cells; assay type: cell-based, human; settings: 4 days, vs control
Protocol: Total RNA was extracted with the Nucleospin RNA isolation system purchased from Macherey-Nagel (Düren, Germany), which included a DNase treatment step. Quantification of isolated RNAs was assessed using a Nanodrop 1000 (Thermo Fisher Scientific, Waltham, MA). RNAs were reverse-transcribed into cDNAs using the High-Capacity cDNA Reverse Transcription Kit purchased from Applied Biosystems (Woolston, UK). Gene expression was assessed by real-time quantitative PCR analysis (RT-qPCR) using SYBR Green PCR Master Mix (Applied Biosystems) and a 384-well QuantStudio™ 7 Flex Real-Time PCR System (Thermo Fisher Scientific). Sequences of the primers used to measure gene expression are presented in Supplementary Table 3. Expression of GAPDH was chosen as reference and the 2^−ΔΔCt calculation method was used to express the relative expression of each selected gene.

ERN1 (IRE1α) = test: RT-qPCR ERN1 mRNA in HepaRG cells; assay type: cell-based, human; settings: 4 days, vs control
How it was run: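 DNase-treated total RNA from HepaRG cells reverse-transcribed and quantified by SYBR Green RT-qPCR. Expression normalised to GAPDH and given as relative values by the 2^−ΔΔCt method.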

phospho-IRE1α (Ser724) = test: Western blot phospho-IRE1α in HepaRG cells; assay type: cell-based, human
Protocol: (§1) Cells were lysed in ice-cold CelLytic M buffer (C2978; Sigma Aldrich) containing phosphatase and protease inhibitors from Roche Applied Science (Penzberg, Germany). Protein concentration was determined using the Pierce BCA Protein Assay Kit (Thermo Fisher Scientific) and equal amounts of protein were diluted with NuPAGE LDS Sample Buffer (Thermo Fisher Scientific). Samples (ca. 25 μg of proteins) were then separated by SDS-PAGE using NuPAGE 4–12% Bis-Tris gels (Thermo Fisher Scientific). Proteins were transferred to PVDF membranes (BioRad) and Ponceau S staining was used to confirm equal loading and transfer. Membranes were blocked in 7.5% milk in TBST (10 mM Tris–HCl, 100 mM NaCl, 0.02% Tween 20) for 1 h at room temperature and incubated overnight at 4 °C with antibodies against phospho-IRE1α (Ser724) (Abcam, ab124945), IRE1α (Cell Signaling, 3294), or HSC70 (Santa Cruz, sc-7298), whose dilutions were 1:1000. […] Protein content was quantified by densitometry with ImageJ software (National Institutes of Health, Bethesda, MD).

IRE1α = test: Western blot total IRE1α in HepaRG cells; assay type: cell-based, human
Protocol: as §1

[3] = treated patients, ref Schulz M et al., Crit Care 2012 ;16(4):R136, cited from earlier work
[4] = system: de novo lipogenesis (DNL); test: DNL from [2-14C]acetic acid in HepaRG cells; assay type: cell-based, human; settings: 4 days, vs control
[5] = Maximum plasma concentration (Cmax) in patients; assay type: in vivo, human; settings: worked out from cited Cmax in patients
[6] = system: mitochondrial fatty acid oxidation (mtFAO); test: mtFAO with [U-14C]palmitic acid in HepaRG cells; assay type: cell-based, human; settings: 4 days, vs control
Protocol: Experiments were carried out on passages 9 to 16. […] DPEN was dissolved in water.
Results were normalized to total protein content determined using the Pierce BCA assay kit from Thermo Fischer Scientific (Waltham, MA). Results were expressed in comparison to control cells.

apoB secretion = test: apoB level in culture medium (ELISA), HepaRG cells; assay type: cell-based, human; settings: 4 days, culture medium, vs control

Structure (SMILES): COc1ccc2c(c1)c(CC(=O)O)c(C)n2C(=O)c1ccc(Cl)cc1 [INDO, indomethacin]
- Maximum plasma concentration (Cmax) in patients [1]: ≤ 8000 ng/mL
- Cmax [1]: ≤ 22 µM
- FAT/CD36 mRNA level [2]: significantly augmented
- ERN1 (IRE1α) mRNA level (ERN1 (IRE1α)): enhanced IRE1α mRNA level
- Protein level of phospho-IRE1α (pIRE1α) (phospho-IRE1α (Ser724)): increased protein level
- Protein level of total IRE1α (IRE1α): increased protein level
- Therapeutic blood (or plasma) concentration in patients ([3]; listed as Indomethacin (INDO)): 0.3 - 1 mg/L and 0.83 - 2.8 µM
- Effect on DNL [4]: increased DNL
- Concentration corresponding to 100xCmax [5]: 2200 µM
- Effect on mtFAO [6]: inhibited this metabolic pathway and mild
- Effect on apoB secretion (apoB secretion): reduced the secretion

Structure (SMILES): CO[C@H]1/C=C/O[C@@]2(C)Oc3c(C)c(O)c4c(O)c(c(/C=N/N5CCN(C)CC5)c(O)c4c3C2=O)NC(=O)/C(C)=C\C=C\[C@H](C)[C@H](O)[C@@H](C)[C@@H](O)[C@@H](C)[C@H](OC(C)=O)[C@@H]1C [RIF, rifampicin]
- Maximum plasma concentration (Cmax) in patients [1]: ≤ 15600 ng/mL
- Cmax [1]: ≤ 19 µM
- FAT/CD36 mRNA level [2]: this effect was not observed
- ERN1 (IRE1α) mRNA level (ERN1 (IRE1α)): enhanced IRE1α mRNA level
- Protein level of phospho-IRE1α (pIRE1α) (phospho-IRE1α (Ser724)): increased protein level
- Protein level of total IRE1α (IRE1α): increased protein level
- Therapeutic blood (or plasma) concentration in patients ([3]; listed as Rifampicin (RIF)): 0.1 - 10 mg/L and 0.12 - 12.2 µM
- Effect on DNL [4]: curb this metabolic pathway
- Concentration corresponding to 100xCmax [5]: 1900 µM
- Effect on mtFAO [6]: inhibited this metabolic pathway; also recorded: moderate
- Effect on apoB secretion (apoB secretion): reduced the secretion
